The NIST ThermoML archive (doi:10.1016/j.tca.2014.10.015)
“And” between values parts separate entries of the source, which are not always exact repeats. Equal entries are not always repeated. ± gives the expanded uncertainty stated by the source.

Details: Liquid; for vapor or sublimation pressure: Transpiration method; for mass density: 293 K, 101.33 kPa, Pycnometric method

CCCCCCCCN=[N+]=[N-] [1-azidooctane]
vapor or sublimation pressure (276.2 K): 0.00625 ± 0.00035 kPa | vapor or sublimation pressure (279.8 K): 0.00904 ± 0.00048 kPa | vapor or sublimation pressure (282.5 K): 0.01172 ± 0.00062 kPa | vapor or sublimation pressure (285.8 K): 0.01548 ± 0.00082 kPa | vapor or sublimation pressure (289.4 K): 0.02119 ± 0.0011 kPa | vapor or sublimation pressure (292.2 K): 0.02751 ± 0.0014 kPa | mass density: 840 ± 20 kg/m3 | vapor or sublimation pressure (293.2 K): 0.02911 ± 0.0015 kPa | vapor or sublimation pressure (296.2 K): 0.03707 ± 0.0019 kPa | vapor or sublimation pressure (300.2 K): 0.04808 ± 0.0025 kPa | vapor or sublimation pressure (302.1 K): 0.05805 ± 0.0031 kPa | vapor or sublimation pressure (303.1 K): 0.06504 ± 0.0034 kPa | vapor or sublimation pressure (307 K): 0.08345 ± 0.0044 kPa | vapor or sublimation pressure (310 K): 0.1089 ± 0.0056 kPa | vapor or sublimation pressure (313.9 K): 0.1355 ± 0.0071 kPa | vapor or sublimation pressure (317.9 K): 0.188 ± 0.0099 kPa | vapor or sublimation pressure (320.9 K): 0.2406 ± 0.012 kPa | vapor or sublimation pressure (321.8 K): 0.2385 ± 0.012 kPa | vapor or sublimation pressure (323.9 K): 0.2592 ± 0.014 kPa and 0.2683 ± 0.014 kPa | vapor or sublimation pressure (325.8 K): 0.3237 ± 0.018 kPa and 0.3236 ± 0.018 kPa and 0.3135 ± 0.017 kPa

CCCCCCCCCCN=[N+]=[N-] [1-decyl azide]
mass density: 870 ± 20 kg/m3 | vapor or sublimation pressure (299.1 K): 0.00431 ± 0.00024 kPa | vapor or sublimation pressure (304 K): 0.00666 ± 0.00035 kPa | vapor or sublimation pressure (309 K): 0.01017 ± 0.00053 kPa | vapor or sublimation pressure (314 K): 0.01489 ± 0.00078 kPa | vapor or sublimation pressure (318.9 K): 0.02152 ± 0.0011 kPa | vapor or sublimation pressure (324 K): 0.03305 ± 0.0017 kPa | vapor or sublimation pressure (329 K): 0.04744 ± 0.0025 kPa | vapor or sublimation pressure (333.9 K): 0.06769 ± 0.0035 kPa | vapor or sublimation pressure (339 K): 0.0914 ± 0.0048 kPa | vapor or sublimation pressure (344.1 K): 0.1347 ± 0.0069 kPa
